Assay results published in US20060030054A1, “Fluorescent probe” (Daiichi Pure Chemicclas Co., LTD., of Tokyo, Japan, priority 2002, published 2006).

Experiments:
[1] = Complex formation constant from fluorescence intensity change on addition of sodium; type: binding; details: 0.2 M Tris-perchlorate buffer pH 7.5, sodium perchlorate, DMF 0.1%, compound 3 μM; read-out: Complex formation constant Na^+
Experimental: (§1) Fluorescence intensity changes of the compound obtained in Example 5 and the compound obtained in Example 7 above were measured with addition of sodium, magnesium, and potassium. Measurements were conducted in 0.2 M Tris-perchlorate buffers at pH 7.5 containing various concentrations of sodium perchlorate and magnesium perchlorate using dimethylformamide (0.1%) as co-solvent when sodium and magnesium were added, and in 0.2 M Tris-hydrochloride buffers at pH 7.5 containing various concentrations of potassium chloride using dimethylformamide (0.1%) as co-solvent when potassium was added. The final concentrations of the compounds obtained in Example 5 and Example 7 were adjusted to be 3 μM. The compound obtained in Example 5 was measured at excitation wavelength of 492 nm and fluorescence wavelength of 513 nm and the compound obtained in Example 7 was measured at excitation wavelength of 504 nm and fluorescence wavelength of […].

[2] = Complex formation constant from fluorescence intensity change on addition of potassium; type: binding; details: 0.2 M Tris-hydrochloride buffer pH 7.5, potassium chloride, DMF 0.1%, compound 3 μM; read-out: Complex formation constant K^+
Experimental: as §1

[3] = Complex formation constant from fluorescence intensity change on addition of magnesium; type: binding; details: 0.2 M Tris-perchlorate buffer pH 7.5, magnesium perchlorate, DMF 0.1%, compound 3 μM
Experimental: as §1

[4] = Fluorescence intensity change against pH change under co-presence of sodium; type: physicochemical; details: 0.2 M Tris-phosphate buffers at various pH, 500 mM sodium perchlorate, DMF 0.1%
Experimental: Fluorescence intensity changes of the compound obtained in Example 7 and Sodium Green tetra(tetramethylammonium)salt (Molecular Probes Inc.) against pH change were studied under co-presence of sodium. Measurements were conducted in 0.2 M Tris-phosphate buffers at various pH containing 500 mM of sodium perchlorate using dimethylformamide (0.1%) as a co-solvent. The compound obtained in Example 7 was measured at excitation wavelength of 504 nm and fluorescence wavelength of 522 nm and Sodium Green tetra(tetramethylammonium)salt was measured at excitation wavelength of 508 nm and fluorescence wavelength of 533 nm.

- Kd [1]: 320 µM
- Kd [2]: 410 µM
- Complex formation constant Mg^+ [3]: Unmeasurable
- Susceptibility of fluorescence intensity to pH change compared with Sodium Green tetra(tetramethylammonium)salt [4]: less susceptible to a pH change
Compound: Cc1cc2c(cc1-c1c3cc(Cl)c(=O)cc-3oc3cc(O)c(Cl)cc13)OCCOCCOCCOCCO2 [Example 7]
